Data on four molecules can be found in patent US20120045528A1, “USE OF N20 GAS FOR TREATING CHRONIC PAIN” (priority 2009, published 2012).

Each structure is given as a SMILES string. “Also recorded” adds a separate entry of the source. Like-named read-outs stand apart in the source and are kept apart here.

Data set [1] concerns neuropathic rat (sciatic nerve constriction, CCI). The experiment in a line: Nociceptive threshold by vocalization test to a mechanical stimulus (Randall-Selitto) in rats with mononeuropathy from sciatic nerve constriction (CCI). It is filed as in vivo, male Sprague-Dawley rats. The method, then: A mononeuropathy is induced in male Sprague-Dawley rats (8 per group) by sciatic nerve constriction. More specifically, on D0, the rats are anesthetized with halothane and the sciatic nerve (injured hind paw side) is prepared using chromic catgut, 4 filament. Neuropathic pain lasting more than 40 days is thus induced.
On D7, the rats are placed in a hermetic chamber where they will inhale, for 75 minutes, the test gas mixture or medical air in the control rats (Sham). Repeated exposures to the mixtures take place on D7, D8, and D9.
Other rats are subjected to comparative treatments with conventional painkilling products, namely ketamine (3×10 mg/kg, sc) and morphine (1 mg/kg, sc).
The nociceptive threshold is then measured via a vocalization test in response to a mechanical stimulus (Randall-Selitto).
The data obtained per measurement are expressed as mean (±standard deviation). The level of significance is set starting from P<0.05.

A further data set deals with human beings. Particulars: cited from earlier work.
[2] abbreviates: N2O concentration 5-25% (vol. %).
Where [3] appears, read: N2O concentration 26-45% (vol. %).
Setting [4] is: N2O concentration 45-65% (vol. %).
[5] abbreviates: morphine 1 mg/kg sc, neuropathic rat.

As to `[N-]=[N+]=O` [nitrous oxide], the “duration of sustained reduction of chronic pain of neuropathic type” value in data set [1] (rat, in vivo) is listed as more than 1 month. Besides, in the data set on human beings (setting [2]), the Amnesia result is “none”, the Analgesia result is recorded as “none”, the Contact entry is on record as “present” and the Psychic effects entry is on record as “slight”. In addition, in the data set on human beings (setting [3]), the Amnesia entry is given as “slight”, the Analgesia entry is given as “weak”, the Contact result is on record as “present” and the Psychic effects result is listed as “drunkenness”. Moreover, in the data set on human beings (setting [4]), the Amnesia entry is reported as “complete”, the Analgesia result is on record as “moderate”, the Contact result is “present” and the Psychic effects entry is listed as “drowsiness”. For the same molecule, the “Psychic effects, Amnesia, Analgesia, Contact” value with human beings (N2O concentration 66-85% (vol. %)) is “Patient unconscious”.

For the molecule `CN1CC[C@]23c4c5ccc(O)c4O[C@H]2[C@@H](O)C=C[C@H]3[C@H]1C5` [morphine], the “duration of analgesic effect” value in data set [1] (morphine 1 mg/kg sc, D14, neuropathic rat) is 30 min. Besides, in data set [1] (setting [5]), the “delayed effect (following days) / anti-hyperalgesic long-term effect” value is given as “without a delayed effect; also recorded: without any anti-hyperalgesic long-term effect” and the “duration of effect following administration (in words)” value is recorded as “limited to a few minutes”.

As for `CNC1(c2ccccc2Cl)CCCCC1=O` (stereo not shown) [ketamine], the “duration of anti-hyperalgesic effect” value in data set [1] (ketamine 3x10 mg/kg sc, neuropathic rat) is recorded as not above 2 days.

In the case of `O=C1CC[C@@]2(O)[C@H]3Cc4ccc(O)c5c4[C@@]2(CCN3CC2CC2)[C@H]1O5` [naltrexone], the “effect on the anti-sensitization effect of 50% nitrous oxide on the following days” value in data set [1] (naltrexone given to block the analgesic effect of 50% nitrous oxide on D7) is recorded as “does not modify”.
